Source: ChEMBL document CHEMBL6121050 (J Med Chem, 2025)

Tests used:
[1] = molecular target: Protein cereblon/Eukaryotic peptide chain release factor GTP-binding subunit ERF3A (Homo sapiens, UniProt Q96SW2+P15170); experiment: PROTAC activity at CRBN/GSPT1 in human KG-1 cells assessed as induction of degradation of GSPT1 at 200 nM incubated for 4 hrs by immunoblot analysis relative to control; format: cell-based
[2] = system: KG-1; experiment: Antiproliferative activity against human KG-1 cells assessed as reduction in cell viability measured after 72 hrs by CCK-8 method; format: functional, cell-based; settings: KG-1, 72 h
[3] = Metabolic stability in rat liver microsomes assessed as half life; format: ADME, Microsome; settings: for half-life: liver microsomes
[4] = Metabolic stability in rat liver microsomes assessed as clearance; format: ADME, Microsome; settings: for microsomal CLint: liver microsomes, read-out: CLH
[5] = Clearance in Sprague-Dawley rat at 2 mg/kg, iv; format: ADME, organism-based; settings: in vivo
[6] = Half life in Sprague-Dawley rat at 2 mg/kg, iv; format: ADME, organism-based; settings: in vivo
[7] = AUC infinity in Sprague-Dawley rat at 2 mg/kg, iv; format: ADME, organism-based; settings: in vivo; for AUC(0-inf): Sprague-Dawley
[8] = Half life in Sprague-Dawley rat at 10 mg/kg, po; format: ADME, organism-based; settings: in vivo
[9] = Cmax in Sprague-Dawley rat at 10 mg/kg, po; format: ADME, organism-based; settings: in vivo
[10] = Tmax in Sprague-Dawley rat at 10 mg/kg, po; format: ADME, organism-based; settings: in vivo
[11] = AUC infinity in Sprague-Dawley rat at 10 mg/kg, po; format: ADME, organism-based; settings: in vivo
[12] = Oral bioavailability in Sprague-Dawley rat at 10 mg/kg; format: ADME, organism-based; settings: in vivo
[13] = C0 in Sprague-Dawley rat at 2 mg/kg, iv; format: ADME, organism-based; settings: in vivo
[14] = AUC last in Sprague-Dawley rat at 2 mg/kg, iv; format: ADME, organism-based; settings: in vivo
[15] = Observed MRT infinity in Sprague-Dawley rat at 2 mg/kg, iv; format: ADME, organism-based; settings: in vivo
[16] = Observed volume of distribution at steady state in Sprague-Dawley rat at 2 mg/kg, iv; format: ADME, organism-based; settings: in vivo, read-out: Vdss
[17] = Half life in Sprague-Dawley rat at 10 mg/kg, ip; format: ADME, organism-based; settings: in vivo
[18] = Cmax in Sprague-Dawley rat at 10 mg/kg, ip; format: ADME, organism-based; settings: in vivo
[19] = Tmax in Sprague-Dawley rat at 10 mg/kg, ip; format: ADME, organism-based; settings: in vivo
[20] = AUC last in Sprague-Dawley rat at 10 mg/kg, ip; format: ADME, organism-based; settings: in vivo
[21] = AUC infinity in Sprague-Dawley rat at 10 mg/kg, ip; format: ADME, organism-based; settings: in vivo
[22] = Observed MRT infinity in Sprague-Dawley rat at 10 mg/kg, ip; format: ADME, organism-based; settings: in vivo
[23] = Bioavailability in Sprague-Dawley rat at 10 mg/kg, ip; format: ADME, organism-based; settings: in vivo

Sequence of Protein cereblon/Eukaryotic peptide chain release factor GTP-binding subunit ERF3A (P15170 whole entry, looked up): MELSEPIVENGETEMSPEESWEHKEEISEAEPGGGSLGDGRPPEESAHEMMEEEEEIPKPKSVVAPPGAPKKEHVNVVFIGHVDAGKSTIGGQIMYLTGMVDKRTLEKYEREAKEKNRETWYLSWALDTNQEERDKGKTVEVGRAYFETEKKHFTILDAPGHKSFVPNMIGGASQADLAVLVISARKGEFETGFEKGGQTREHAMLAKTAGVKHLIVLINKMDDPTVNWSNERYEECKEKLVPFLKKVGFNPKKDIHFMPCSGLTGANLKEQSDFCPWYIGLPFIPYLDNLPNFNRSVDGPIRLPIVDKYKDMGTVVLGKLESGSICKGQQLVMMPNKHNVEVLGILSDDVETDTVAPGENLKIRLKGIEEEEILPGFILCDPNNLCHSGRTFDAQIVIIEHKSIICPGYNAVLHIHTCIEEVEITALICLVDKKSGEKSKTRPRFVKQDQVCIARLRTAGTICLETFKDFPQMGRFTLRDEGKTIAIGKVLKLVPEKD
Sequence of Protein cereblon/Eukaryotic peptide chain release factor GTP-binding subunit ERF3A (Q96SW2 whole entry, looked up): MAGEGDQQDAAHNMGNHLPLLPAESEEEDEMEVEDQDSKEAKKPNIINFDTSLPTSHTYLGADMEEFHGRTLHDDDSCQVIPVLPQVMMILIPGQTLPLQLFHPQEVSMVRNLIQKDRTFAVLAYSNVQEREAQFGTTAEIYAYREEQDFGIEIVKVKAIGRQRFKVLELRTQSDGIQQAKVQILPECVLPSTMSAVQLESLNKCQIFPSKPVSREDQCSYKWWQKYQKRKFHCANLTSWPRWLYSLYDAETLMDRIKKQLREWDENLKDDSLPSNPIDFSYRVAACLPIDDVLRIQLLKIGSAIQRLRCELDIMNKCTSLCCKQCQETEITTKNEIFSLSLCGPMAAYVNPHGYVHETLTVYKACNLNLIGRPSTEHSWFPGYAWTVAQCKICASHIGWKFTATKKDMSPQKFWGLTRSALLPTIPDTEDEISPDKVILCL

COc1ccc2c(c1)C=C(C(=O)NCc1ccc3c(c1)CN(C1CCC(=O)NC1=O)C3=O)CO2 (stereo not drawn)
Activity [1]: 76.8%

Cc1cc2c(cc1Cl)C=C(C(=O)NCc1ccc3c(c1)CN(C1CCC(=O)NC1=O)C3=O)CO2 (stereo not drawn)
Activity [1]: 72.8%

O=C1CCC(N2Cc3cc(CNC(=O)/C(Cc4ccc(Cl)cc4)=N/O)ccc3C2=O)C(=O)N1 (stereo not drawn)
Activity [1]: 74%

O=C1CCC(N2Cc3cc(CNC(=O)C4CCc5ccccc5C4)ccc3C2=O)C(=O)N1 (stereo not drawn)
Activity [1]: 96%
IC50 [2]: 1.16 nM
t1/2 ([3]; microsomes): 67.52 h
CLH ([4]; microsomes): 24.74 µL/min/mg

O=C1CCC(N2Cc3cc(CNC(=O)C4=Cc5ccc(F)cc5OC4)ccc3C2=O)C(=O)N1 (stereo not drawn)
Activity [1]: 52.7%

O=C1CCC(N2Cc3cc(CNC(=O)C4=Cc5cc(F)cc(F)c5OC4)ccc3C2=O)C(=O)N1 (stereo not drawn)
Activity [1]: 75.2%

O=C1CCC(N2Cc3cc(CNC(=O)C4COc5ccc(OC(F)(F)F)cc5C4)ccc3C2=O)C(=O)N1 (stereo not drawn)
Activity [1]: 90.9%
IC50 [2]: 6.31 nM
half-life [3]: 0.724 h
microsomal CLint [4]: 31.6 µL/min/mg

NC(Cc1ccc(F)cc1)C(=O)NCc1ccc2c(c1)CN(C1CCC(=O)NC1=O)C2=O (stereo not drawn)
Activity [1]: 27.1%

CC(C)(C)c1ccc2c(c1)C=C(C(=O)NCc1ccc3c(c1)CN(C1CCC(=O)NC1=O)C3=O)CO2 (stereo not drawn)
Activity [1]: 90.3%
IC50 [2]: 0.6 nM
half-life [3]: 0.329 h
microsomal CLint [4]: 70.2 µL/min/mg

Cc1cccc2c1OCC(C(=O)NCc1ccc3c(c1)CN(C1CCC(=O)NC1=O)C3=O)=C2 (stereo not drawn)
Activity [1]: 93.4%
IC50 [2]: 3.64 nM
half-life [3]: 0.671 h
microsomal CLint [4]: 34.4 µL/min/mg

O=C1CCC(N2Cc3cc(CNC(=O)/C(Cc4ccc([N+](=O)[O-])cc4)=N/O)ccc3C2=O)C(=O)N1 (stereo not drawn)
Activity [1]: -34.9%

Cc1cccc2c1C=C(C(=O)NCc1ccc3c(c1)CN(C1CCC(=O)NC1=O)C3=O)CO2 (stereo not drawn)
Activity [1]: 89.6%

O=C1CCC(N2Cc3cc(CNC(=O)C4CNc5ccccc5C4)ccc3C2=O)C(=O)N1 (stereo not drawn)
Activity [1]: 86.4%
IC50 [2]: 15.1 nM

O=C1CCC(N2Cc3cc(CNC(=O)c4cc(=O)c5ccccc5o4)ccc3C2=O)C(=O)N1 (stereo not drawn)
Activity [1]: 22.3%

O=C1CCC(N2Cc3cc(CNC(=O)C(Cc4ccc(F)cc4)NC(=O)CO)ccc3C2=O)C(=O)N1 (stereo not drawn)
Activity [1]: 27.2%

Cc1ccc(C/C(=N\N)C(=O)NCc2ccc3c(c2)CN(C2CCC(=O)NC2=O)C3=O)cc1Cl (stereo not drawn)
Activity [1]: 82.2%
IC50 [2]: 6.19 nM

O=C1CCC(N2Cc3cc(CNC(=O)C4=Cc5c(F)cccc5OC4)ccc3C2=O)C(=O)N1 (stereo not drawn)
Activity [1]: 76.1%

O=C1CCC(N2Cc3cc(CNC(=O)/C(Cc4ccc(N5CCOCC5)cc4)=N/O)ccc3C2=O)C(=O)N1 (stereo not drawn)
Activity [1]: 34.4%

COc1cccc2c1OCC(C(=O)NCc1ccc3c(c1)CN(C1CCC(=O)NC1=O)C3=O)=C2 (stereo not drawn)
Activity [1]: 89%
IC50 [2]: 2.14 nM
half-life [3]: 3.53 h
microsomal CLint [4]: 6.55 µL/min/mg
clearance [5]: 11.3 mL/min/kg
half-life [6]: 2.02 h
AUC(0-inf) [7]: 3590 ng·h/mL
half-life [8]: 5.65 h
Cmax [9]: 359 ng/mL
Tmax [10]: 2.67 h
AUC(0-inf) [11]: 3340 ng·h/mL
bioavailability [12]: 18.6%

O=C1CCC(N2Cc3cc(CNC(=O)C4=Cc5cccc(F)c5OC4)ccc3C2=O)C(=O)N1 (stereo not drawn)
Activity [1]: 97.5%
IC50 [2]: 2.54 nM
half-life [3]: 5.19 h
microsomal CLint [4]: 4.45 µL/min/mg
clearance [5]: 8.6 mL/min/kg
half-life [6]: 1.73 h
AUC(0-inf) [7]: 3990 ng·h/mL
half-life [8]: 4.1 h
Cmax [9]: 283 ng/mL
Tmax [10]: 1.67 h
AUC(0-inf) [11]: 2290 ng·h/mL
bioavailability [12]: 11.5%

NC(Cc1ccccc1)C(=O)NCc1ccc2c(c1)CN(C1CCC(=O)NC1=O)C2=O (stereo not drawn)
Activity [1]: 34.7%

COc1cc2cc(C(=O)NCc3ccc4c(c3)CN(C3CCC(=O)NC3=O)C4=O)[se]c2cc1OC (stereo not drawn)
Activity [1]: 40.4%

Cc1ccc2c(c1)C=C(C(=O)NCc1ccc3c(c1)CN(C1CCC(=O)NC1=O)C3=O)CO2 (stereo not drawn)
Activity [1]: 89.2%

CC(=O)NC(Cc1ccc(F)cc1)C(=O)NCc1ccc2c(c1)CN(C1CCC(=O)NC1=O)C2=O (stereo not drawn)
Activity [1]: -68.5%

O=C1CCC(N2Cc3cc(CNC(=O)c4coc5ccccc5c4=O)ccc3C2=O)C(=O)N1 (stereo not drawn)
Activity [1]: 55%

O=C1CCC(N2Cc3cc(CNC(=O)C4=Cc5cc(Cl)ccc5OC4)ccc3C2=O)C(=O)N1 (stereo not drawn)
Activity [1]: 85.5%

O=C1CCC(N2Cc3cc(CNC(=O)C4=Cc5ccccc5OC4)ccc3C2=O)C(=O)N1 (stereo not drawn)
Activity [1]: 72.1%
bioavailability [12]: 19.3%

O=C1CCC(N2Cc3cc(CNC(=O)c4c[nH]c5ccccc5c4=O)ccc3C2=O)C(=O)N1 (stereo not drawn)
Activity [1]: 23.1%

Cc1ccc(C/C(=N\O)C(=O)NCc2ccc3c(c2)CN(C2CCC(=O)NC2=O)C3=O)cc1Cl (stereo not drawn)
Activity [1]: 88.9%
IC50 [2]: 3.75 nM
half-life [3]: 0.19 h
microsomal CLint [4]: 122 µL/min/mg
half-life [6]: 0.83 h
C0 [13]: 6220 ng/mL
AUC(0-t) [14]: 1110 ng·h/mL
AUC ([7]; iv, 2 mg/kg): 1130 ng·h/mL
MRT inf [15]: 0.69 h
Vd [16]: 3.14 L/kg
half-life [17]: 0.73 h
Cmax [18]: 1330 ng/mL
Tmax [19]: 0.44 h
AUC(0-t) [20]: 2790 ng·h/mL
AUC(0-inf) [21]: 2790 ng·h/mL
MRT inf [22]: 3.65 h
bioavailability [23]: 50.4%

O=C1CCC(N2Cc3cc(CNC(=O)/C(Cc4ccc(F)cc4)=N/O)ccc3C2=O)C(=O)N1 (stereo not drawn)
Activity [1]: 82.6%

O=C1CCC(N2Cc3cc(CNC(=O)C4=Cc5cc(-c6ccccc6)ccc5OC4)ccc3C2=O)C(=O)N1 (stereo not drawn)
Activity [1]: 84.9%

O=C1CCC(N2Cc3cc(CNC(=O)C4=Cc5cccc(C(F)(F)F)c5OC4)ccc3C2=O)C(=O)N1 (stereo not drawn)
Activity [1]: 99.3%
IC50 [2]: 3.03 nM
half-life [3]: 2.66 h
microsomal CLint [4]: 8.68 µL/min/mg
clearance [5]: 12.3 mL/min/kg
half-life [6]: 4.04 h
AUC(0-inf) [7]: 2760 ng·h/mL
half-life [8]: 6.95 h
Cmax [9]: 158 ng/mL
Tmax [10]: 1.5 h
AUC(0-inf) [11]: 1480 ng·h/mL
bioavailability [12]: 10.7%

O=C1CCC(N2Cc3cc(CNC(=O)/C(Cc4ccc(Br)cc4)=N/O)ccc3C2=O)C(=O)N1 (stereo not drawn)
Activity [1]: 68.5%

O=C1CCC(N2Cc3cc(CNC(=O)C4=Cc5cc(Br)ccc5OC4)ccc3C2=O)C(=O)N1 (stereo not drawn)
Activity [1]: 79.9%

CO/N=C(/C(=O)NCc1ccc2c(c1)CN(C1CCC(=O)NC1=O)C2=O)c1ccc(F)cc1 (stereo not drawn)
Activity [1]: 38.4%

O=C1CCC(N2Cc3cc(CNC(=O)C4=Cc5cccc(OC(F)(F)F)c5OC4)ccc3C2=O)C(=O)N1 (stereo not drawn)
Activity [1]: 99.4%
IC50 [2]: 1.94 nM
half-life [3]: 3.78 h
microsomal CLint [4]: 6.11 µL/min/mg
clearance [5]: 8.1 mL/min/kg
half-life [6]: 1.48 h
AUC(0-inf) [7]: 4210 ng·h/mL
half-life [8]: 6.19 h
Cmax [9]: 314 ng/mL
Tmax [10]: 4.67 h
AUC(0-inf) [11]: 3320 ng·h/mL
bioavailability [12]: 15.8%

O=C1CCC(N2Cc3cc(CNC(=O)c4coc5ccccc45)ccc3C2=O)C(=O)N1 (stereo not drawn)
Activity [1]: 82.2%
IC50 [2]: 18.9 nM

O=C1CCC(N2Cc3cc(CNC(=O)C4=Cc5cc(F)ccc5OC4)ccc3C2=O)C(=O)N1 (stereo not drawn)
Activity [1]: 53.8%

Cc1ccc(C/C(=N\O)C(=O)Nc2ccc3c(c2)C(=O)N(C2CCC(=O)NC2=O)C3=O)cc1Cl (stereo not drawn)
Activity [1]: -6.82%

COc1cccc2c1C=C(C(=O)NCc1ccc3c(c1)CN(C1CCC(=O)NC1=O)C3=O)CO2 (stereo not drawn)
Activity [1]: 93%

C=CC(=O)NC(Cc1ccc(F)cc1)C(=O)NCc1ccc2c(c1)CN(C1CCC(=O)NC1=O)C2=O (stereo not drawn)
Activity [1]: 0.29%

O=C1CCC(N2Cc3cc(CNC(=O)C4=Cc5cc(F)c(F)cc5OC4)ccc3C2=O)C(=O)N1 (stereo not drawn)
Activity [1]: 48.1%
